Results published in patent publication US8598355B2, “Amide compound” (Astellas Pharma Inc., priority 2008, dated 2013).
pKi: −log10 of the molar value.

Experiments:
rat EP4 receptor = rat EP4 receptor (Rattus norvegicus, UniProt P43114); experiment: Evaluation test of rat EP4 receptor affinity ([3H]PGE2 binding, membrane fraction of HEK293 cells expressing rat EP4); parameters: expressed in transfected cells; host or cells: HEK293 cells, transient transfection with Lipofectamine 2000; membrane fraction; conditions: [3H]PGE2 0.3 nM
Chain of rat EP4 receptor (P43114 whole entry): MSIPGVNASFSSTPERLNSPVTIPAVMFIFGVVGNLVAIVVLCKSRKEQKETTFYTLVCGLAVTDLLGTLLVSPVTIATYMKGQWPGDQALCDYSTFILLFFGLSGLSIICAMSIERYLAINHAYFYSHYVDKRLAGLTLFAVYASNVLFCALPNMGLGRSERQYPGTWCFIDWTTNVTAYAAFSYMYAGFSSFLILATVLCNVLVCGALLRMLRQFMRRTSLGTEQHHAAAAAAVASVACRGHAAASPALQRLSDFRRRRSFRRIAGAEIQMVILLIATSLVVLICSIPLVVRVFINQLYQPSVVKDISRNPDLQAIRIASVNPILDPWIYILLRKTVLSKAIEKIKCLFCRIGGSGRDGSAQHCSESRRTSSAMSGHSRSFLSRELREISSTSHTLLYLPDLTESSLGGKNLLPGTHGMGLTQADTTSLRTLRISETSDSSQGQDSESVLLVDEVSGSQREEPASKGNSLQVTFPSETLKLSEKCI
Protocol: Evaluation Test of Rat EP4 Receptor Affinity
Cell Culturing and Transfection
Using a 10 cm collagen-coated dish (Asahi Glass), HEK293 cells were cultured in D-MEM culture medium, the culture medium was removed at a confluence (90 to 100% density state) and washed with a phosphate buffer saline (PBS), and then the cells were detached with N,N,N′,N′-tetrakis(carboxymethyl)ethylenediamine (EDTA). The number of the cells were counted and seeded on a 15 cm collagen-coated dish to a confluence of 70%. On the next day, to an Opti-MEM culture medium at 1.2 mL/dish was added Lipofectamine 2000 (Invitrogen) at 60 μL/dish, followed by leaving to stand at room temperature for 5 minutes. A plasmid in which rat EP4 (Sequence Number 1) had been inserted into a TA cloning site of pcDNA3.1-V5-His-topo was added thereto at 15 μg/dish. After leaving to stand at room temperature for 30 minutes, the resultant was added to the dish and cultured for 20 to 24 hours. The cell culture was carried out in a CO2 incubator (37° C., 5% CO2).
Preparation of Membrane Fraction
The culture medium was removed by suction, 10 mL of cooled PBS was added thereto per 15 cm dish, and the cells were scraped using a cell scraper (Sumitomo Bakelite). They were washed with cooled PBS (1,200 rpm, 4° C., 5 min), and then suspended in 6 mL of cooled 20 mM Tris-HCl (pH 7.4; Nakalai Tesque Inc., including 5 mM EDTA (Nakalai Tesque Inc.) per dish and the resultant was homogenized using a Polytron and the homogenate was centrifuged (26,000 rpm, 20 min, 4° C.). The obtained precipitate was resuspended in cooled 20 mM Tris-HCl and homogenized again using a Polytron, and the homogenate was centrifuged (26,000 rpm, 20 min, 4° C.). The obtained precipitate was resuspended in 50 mM HEPES (pH 7.5; Dojindo Laboratories) at 1 mL per dish, homogenized using a Polytron, and freeze-stored at −80° C. as a membrane fraction. At this time, a part thereof was used for the measurement of the protein concentration. Measurement of the protein concentration was carried out in duplicate using a Bio-Rad Protein assay kit (Bio-Rad Laboratories) in accordance with the appended standard Protocol.
[^3H]PGE2 50 μL (final concentration 0.3 nM; Perkin Elmer), 100 μL (20 μg/well) of a membrane fraction prepared from the rat EP4 expression cell and 50 μL of a test compound were mixed in a 96-well microplate (Sumitomo Bakelite), incubated at room temperature for 1 hour, filtered by suction on a UniFilter-96 GF/B (Perkin Elmer) using a FilterMate Harvester (Perkin Elmer), and then washed three times with 300 μL/well of a cooled assay buffer. Dilution of [^3H]PGE2 and the membrane fraction was carried out using an assay buffer (50 mM HEPES, 10 mM MgCl2), and dilution of the test compound and the unlabeled PGE2 was carried out using DMSO and an assay buffer. Further, in the case of the addition of a human serum albumin (HSA), dilution was carried out using an assay buffer containing 4% HSA (final concentration 1%; Sigma). The UniFilter-96 GF/B was treated preliminarily by washing twice with 200 μL/well of a cooled assay buffer. The UniFilter-96 GF/B after filtration was dried in a dryer overnight, 50 μL/well of MicroScint20 (Perkin Elmer) was added thereto, and then the radioactivity was measured using a TopCount (Perkin Elmer). For measurement of the non-specific binding, an unlabeled PGE2 (final concentration 1 μM; Cayman) was added. All of the measurements were carried out in duplicate, and the specific binding amount was determined by subtracting the non-specific binding amount from the total binding amount. The Ki value was calculated according to the general methods.
In the connection, Ex represents the below-described Example Compound number.

Structure (SMILES) | pKi (rat EP4 receptor) | melting point
O=C(NC[C@H]1CC[C@H](C(=O)O)CC1)c1cc(Cl)cc2ccn(Cc3ccc4ccccc4n3)c12 [Example 53] | 8.85 | 
O=C(O)c1ccc(CNC(=O)c2cc(Cl)cc3ccn(Cc4ccc5ccccc5n4)c23)cc1 [Example 57] | 9.07 | 243 to 244 °C (dec.)
O=C(NC[C@H]1CC[C@H](C(=O)O)CC1)c1cc(C(F)(F)F)cc2ccn(Cc3ccc4ccccc4n3)c12 [Example 124] | 8.85 | 
